Experimental data reported in US9347888B2, “Detection of bacteria exhibiting a resistance to carbapenems” (BIOMERIEUX, priority 2011, dated 2016).

Assays:
[1] = tested on: carbapenemase-producing strains; experiment: Faropenem on pure strains, agar dilution: detection sensitivity; type: cell-based, Gram-negative bacteria; conditions: medium containing 16 mg/L faropenem; for Detection sensitivity (strains detected/strains): 24 h 37°C
Method: (§1) Seventy-nine strains of Gram-negative bacteria, of which 69 are enterobacteria and 10 non-enterobacteria (non-fermenting bacteria), whose resistance characteristics are set out in Table I, were tested on media containing different concentrations of faropenem in order to establish the sensitivity/specificity of each formulation. The dishes were read after 24 hours of incubation at 37° C.
(§2) The medium used is a conventional agar medium comprising at least one chromogenic substrate, and supplemented with faropenem at the following concentrations:
(§3) The media are divided into 120×120 square dishes.
(§4) The seeding is performed from 24-h pre-cultures at 37° C. on trypcase soy agar.
(§5) For each strain, a 0.5 McF suspension in physiological water is produced and then diluted 1/100.
(§6) Each suspension is spot-seeded (1 to 2 μL) on each medium with the aid of a multi-point inoculator according to the Agar Dilution (AD) method.
(§7) Readings are performed after 24 hours of incubation at 37° C.
(§8) For interpretation, the following cases are considered as corresponding to growth inhibition: • absence of bacterial growth • number of colonies≦3
(§9) The presence of 4 colonies or more is considered to be positive growth.

[2] = tested on: strains with other types of resistance (ESBL or cephalosporinase, impermeability resistance); experiment: Faropenem on pure strains, agar dilution: detection specificity; type: cell-based, Gram-negative bacteria; conditions: medium containing 16 mg/L faropenem; for Detection specificity (strains inhibited/strains): 24 h 37°C
Method: as §1, §2, §3, §4, §5, §6, §7, §8, §9

[3] = tested on: KPC strains; experiment: Faropenem on pure strains, agar dilution: MIC and growth of KPC strains; type: cell-based, Gram-negative bacteria
Method: as §1, §2, §3, §4, §5, §6, §7, §8, §9

[4] = Test of stability of the different carbapenems in agar medium; type: physicochemical; conditions: agar media kept at 2 to 8°C up to 9 weeks (63 days); strains seeded D0, D14, D42, D63
Method: Agar media modelled on those indicated supra were prepared and kept at a temperature of between 2 and 8° C. for up to 9 weeks (63 days).
ESBL and AmpC strains, and carbapenemases from class B, IR or KPC, were seeded on these different media on D0, D14, D42 and D63.

[5] = tested on: IR (impermeability resistance) strains; experiment: Impact of cloxacillin and/or PAbetaN with faropenem, agar dilution; type: cell-based, Gram-negative bacteria
Method: (§10) Seventy-seven strains of Gram-negative bacteria, of which 71 are enterobacteria and 6 non-enterobacteria (non-fermenting bacteria), whose resistance characteristics are set out in Table VIII, were tested on media containing different concentrations of faropenem and cloxacillin, with or without PAbetaN, in order to establish the sensitivity and the specificity of each formulation. The tested media are described in Table IX.
(§11) The chromogenic media are divided into 120×120 square dishes.
(§12) The seeding is performed from 24-h pre-cultures at 37° C. on trypcase soy agar. For each strain, a 0.5 McF suspension in physiological water is produced. Each suspension is spot-seeded (1 to 2 μL) on each medium with the aid of a multi-point inoculator according to the Agar Dilution (AD) method. Readings are performed after 24 hours of incubation at 37° C.
(§13) An absence of bacterial growth or a number of colonies which is less than or equal to 3 are considered as corresponding to growth inhibition. The presence of 4 colonies or more is considered to be positive growth.

[6] = tested on: Total carbapenemases; experiment: as above; type: cell-based, Gram-negative bacteria; conditions: cloxacillin alone (no PAbetaN), at the 3 concentrations of faropenem tested
Method: as §10, §11, §12, §13

C[C@@H](O)[C@H]1C(=O)N2C(C(=O)O)=C([C@H]3CCCO3)S[C@H]12 [faropenem]
Detection sensitivity ([1]; inoculum 0.5 McF): 91.4% | Detection sensitivity ([1]; inoculum 0.5 McF diluted 1/100): 91.4% | Detection sensitivity (strains detected/strains) ([1]; inoculum 0.5 McF diluted 1/100): 53/58 | Detection sensitivity (strains detected/strains) ([1]; inoculum 0.5 McF): 53/58 | Detection specificity ([2]; inoculum 0.5 McF): 66.7% | Detection specificity ([2]; inoculum 0.5 McF diluted 1/100): 71.4% | Detection specificity (strains inhibited/strains) ([2]; inoculum 0.5 McF diluted 1/100): 15/21 | Detection specificity (strains inhibited/strains) ([2]; inoculum 0.5 McF): 14/21 | KPC strains developing on the medium ([3]; faropenem at 16 mg/L): All of the KPC strains develop | MIC of the totality of KPC strains ([3]; whatever the inoculum tested, unit not printed (media in mg/L)): > 32 | stability in agar medium [4]: close to that of ertapenem, and greater than that of imipenem and of meropenem | No. IR developing (/19) ([5]; PAbetaN 0, cloxacillin 0, faropenem 8 mg/L): 16 | No. IR developing (/19) ([5]; PAbetaN 0, cloxacillin 0, faropenem 16 mg/L): 15 | No. IR developing (/19) ([5]; PAbetaN 0, cloxacillin 0, faropenem 32 mg/L): 10 | No. IR developing (/19) ([5]; PAbetaN 0, cloxacillin 50, faropenem 8 mg/L): 14 | No. IR developing (/19) ([5]; PAbetaN 0, cloxacillin 50, faropenem 16 mg/L): 9 | No. IR developing (/19) ([5]; PAbetaN 0, cloxacillin 50, faropenem 32 mg/L): 4 | No. IR developing (/19) ([5]; PAbetaN 0, cloxacillin 100, faropenem 8 mg/L): 11 | No. IR developing (/19) ([5]; PAbetaN 0, cloxacillin 100, faropenem 16 mg/L): 6 | No. IR developing (/19) ([5]; PAbetaN 0, cloxacillin 100, faropenem 32 mg/L): 2 | No. IR developing (/19) ([5]; PAbetaN 0, cloxacillin 200, faropenem 8 mg/L): 11 | No. IR developing (/19) ([5]; PAbetaN 0, cloxacillin 200, faropenem 16 mg/L): 6 | No. IR developing (/19) ([5]; PAbetaN 0, cloxacillin 200, faropenem 32 mg/L): 1 | No. IR developing (/19) ([5]; PAbetaN 25, cloxacillin 50, faropenem 8 mg/L): 11 | No. IR developing (/19) ([5]; PAbetaN 25, cloxacillin 50, faropenem 16 mg/L): 10 | No. IR developing (/19) ([5]; PAbetaN 25, cloxacillin 50, faropenem 32 mg/L): 5 | No. IR developing (/19) ([5]; PAbetaN 25, cloxacillin 100, faropenem 8 mg/L): 10 | No. IR developing (/19) ([5]; PAbetaN 25, cloxacillin 100, faropenem 16 mg/L): 5 | No. IR developing (/19) ([5]; PAbetaN 25, cloxacillin 100, faropenem 32 mg/L): 1 | No. IR developing (/19) ([5]; PAbetaN 25, cloxacillin 200, faropenem 8 mg/L): 7 | No. IR developing (/19) ([5]; PAbetaN 25, cloxacillin 200, faropenem 16 mg/L): 1 | No. IR developing (/19) ([5]; PAbetaN 25, cloxacillin 200, faropenem 32 mg/L): 1 | impact on IR strains ([5]; faropenem alone, up to a concentration of 16 mg/L): little impact

Cc1onc(-c2ccccc2Cl)c1C(=O)N[C@@H]1C(=O)N2[C@@H]1SC(C)(C)[C@@H]2C(=O)O [cloxacillin]
additional IR strains inhibited ([5]; addition of 50 mg/L cloxacillin at 16 mg/L of faropenem): 6 | additional IR strains inhibited ([5]; addition of 200 mg/L cloxacillin at 16 mg/L of faropenem): 9 | impact on the growth of the carbapenemase-producing strains [6]: little or no impact

C[C@@H](O)[C@H]1C(=O)N2C(C(=O)O)=C(S[C@@H]3CN[C@H](CNS(N)(=O)=O)C3)[C@H](C)[C@H]12 [doripenem]
stability in agar medium [4]: close to that of ertapenem, and greater than that of imipenem and of meropenem
